Read-outs that look alike come from different tables or passages of the source.
Legend:
HMEC1 = assay: Cell viability assay (MTT), HMEC1; format: cell-based, Human; conditions: 10% FBS; for IC50: MTT, 6-day treatment, 1% DMSO
Protocol: (§1) Table 12: 6-day cell viability assay (MTT) in the presence of 10% Fetal Bovine Serum and 1% DMSO, in HMEC1, HCT116, MDA-MB-231, MCF7 and NIH3T3 cell lines. 3 10^3 to 15 10^3 cells were seeded in 48-well plates in growth medium containing 10% FBS, with or without various concentrations of test compounds. Cell cultures were fed every 3 days with the appropriate media. Cell viability was determined on day 6. Data were analyzed and IC50s were calculated from dose-response curves using GraphPad Prism. Results summarized in the tables are mean±SEM of 1 to 8 independent experiments.
(§2) In order to determine a compound's effect on cell viability, microculture tetrazolium assays (MTT) were performed as described by Carmichael et al. (1996) with modifications. Four human tumoral cell lines, namely HCT116 colon adenocarcinoma, H460 lung carcinoma, MCF-7 and MDA-MB-231 breast carcinoma cell lines, DLD1 colorectal adenocarcinoma, HeLa adenocarcinoma, HepG2 hepatocellular carcinoma. 3 immortalized but non tumorigenic cell lines, namely NIH3T3 mouse fibroblasts (American Type Culture Collection) and primary hepatocytes (Biopredic international), cultured according to their recommendations together with Human Microvasculature Endothelial Cell line HMEC1 (National Center for Infectious Diseases). Briefly, cells were seeded in 48-well plates 24 hours before drug addition. Cells were treated with 0 to 200 μM (11 concentrations) of compound solubilized in DMSO, adjusting the final concentration of DMSO to 1% in the well. 16 hours, and three or six days after treatment, 0.5 mg/ml MTT (Sigma) was added to the medium and cells were incubated for 1-5 hours at 37° C. before solubilization of formazan crystals in 100% DMSO. Absorbance was measured using a spectrophotometer at a wavelength of 550 nm. Data was analyzed using the GraphPad Prism software (GraphPad Software, Inc.), and IC50 (dose leading to 50% cell death) was calculated from the dose-response curves.

HCT116 = assay: Cell viability assay (MTT), HCT116; format: cell-based, human; conditions: 1% DMSO
Protocol: as §1
(§3) Table 13: 6-day cell viability assay (MTT) in the presence of 0.5% Fetal Bovine Serum and 1% DMSO, in HCT116 and MDA-MB-231 cell lines. 7.5 10^4 to 15 10^4 cells were seeded in 48-well plates in growth medium containing 10% FBS, with or without various concentrations of test compounds. Cell cultures were fed every 3 days with the appropriate media. Cell viability was determined on day 6. Data were analyzed and IC50s were calculated from dose-response curves using GraphPad Prism. Results summarized in the tables are mean±SEM of 1 to 2 independent experiments.
(§4) Table 14: 3-day cell viability assay (MTT) in the presence of 10% Fetal Bovine Serum and 1% DMSO, in DLD1, HCT116, MDA-MB-231, MCF7 and HeLa cells. 7.5 10^3 to 1.5 10^4 cells were seeded in 48-well plates in growth medium containing 10% FBS, with or without various concentrations of test compounds. Data were analyzed and IC50s were calculated from dose-response curves using GraphPad Prism. Results summarized in the tables are mean±SEM of 1 to 7 independent experiments.
(§5) Table 15: 16-hour cell viability assay (MTT) in the presence of 10% Fetal Bovine Serum and 1% DMSO, in HCT116, MDA-MB-231, NIH3T3, HepG2 and primary hepatocytes. 5 10^4 to 10 10^4 cells were seeded in 48-well plates in growth medium containing 10% FBS, with or without various concentrations of test compounds. Data were analyzed and IC50s were calculated from dose-reponse curves using GraphPad Prism. Results summarized in the tables are mean±SEM of 1 to 2 independent experiments.
as §2

MDA-MB-231 = assay: Cell viability assay (MTT), MDA-MB-231; format: cell-based, human; conditions: 1% DMSO
Protocol: as §1, §3, §4, §5, §2

NIH 3T3 = assay: Cell viability assay (MTT), NIH 3T3; format: cell-based, mouse; conditions: 10% FBS, 1% DMSO
Protocol: as §1, §5, §2

[1] = 10% FBS, 6-day treatment, read-out: IC50 μM, MDA-MB-231
[2] = Homo sapiens, HCT-116, 144 h, 10% FBS, 6-day treatment
[3] = Homo sapiens, MDA-MB-231, 144 h, 10% FBS, 6-day treatment, read-out: IC50 μM, MDA-MB-231
[4] = Mus musculus, NIH3T3, 144 h, 6-day treatment

SMILES | IC50 (HCT116; 10% FBS, 6-day treatment) [µM] | IC50 (HMEC1; Homo sapiens, HMEC-1, 144 h) [µM] | IC50 (HCT116; [2]) [µM] | IC50 (NIH 3T3; [4]) [µM] | also measured
COc1cc2c(cc1O)CC[C@@H]1[C@@H]2CC[C@]2(C)[C@@H](O)CC[C@@H]12 [2ME, 2-Methoxyestradiol, reference compound] | 0.8 | – | – | – | IC50 (HMEC1): 2.1 µM; IC50 (HCT116; 0.5% FBS, 6-day treatment): 3.1 µM; IC50 (HCT116; 10% FBS, 16-hours treatment): 128 µM; IC50 (MDA-MB-231; 0.5% FBS, 6-day treatment, read-out: IC50 (μM), MDA-MB-231): 15.4 µM; IC50 (MDA-MB-231; [1]): 0.3 µM; IC50 (MDA-MB-231; 10% FBS, 16-hours treatment, read-out: IC50 μM, MDA-MB-231): > 100 µM; IC50 (NIH 3T3; 6-day treatment): 2.4 µM; IC50 (NIH 3T3; 16-hours treatment): > 150 µM
CN1CCN(Cc2cc(=O)c(OCCCCCOc3ccnc4cc(C(F)(F)F)ccc34)co2)CC1 [EHT 0079, 5-(5-(7-(Trifluoromethyl)quinolin-4-yloxy)pentyloxy)-2-((4-methylpiperazin-1-yl)methyl)-4H-pyran-4-one] | – | 28.6 | 12.5 | – | –
O=c1cc(CN2CCOCC2)occ1OCCOCCSc1ccnc2cc(C(F)(F)F)ccc12 [EHT 0371, 5-(2-(2-(7-(Trifluoromethyl)quinolin-4-ylthio)ethoxy)ethoxy)-2-(morpholinomethyl)-4H-pyran-4-one] | – | 88.7 | – | – | –
CC(C)(C)C(=O)N1CCN(Cc2cc(=O)c(OCCCCCSc3ccnc4cc(C(F)(F)F)ccc34)co2)CC1 [EHT 0785, 5-(5-(7-(Trifluoromethyl)quinolin-4-ylthio)pentyloxy)-2-((4-(pivaloyl)piperazin-1-yl)methyl)-4H-pyran-4-one] | – | < 10 | – | 11.6 | difference of activity in HMEC1 cells as compared to HCT116 cells (HMEC1; MTT 6 days, compounds most active in HCT116): 5 fold; IC50 (HMEC1): 9.6 µM; IC50 (MDA-MB-231; [1]): 8.2 µM; IC50 (MDA-MB-231; [3]): < 9 µM
O=c1cc(CN2CCOCC2)occ1OCCCCCOc1ccnc2ccc(C(F)(F)F)cc12 [EHT 1426, 5-(5-(6-(Trifluoromethyl)quinolin-4-yloxy)pentyloxy)-2-(morpholinomethyl)-4H-pyran-4-one] | – | – | 18 | – | –
Cc1cc(OCCCCCOc2coc(COC3CCCCO3)cc2=O)c2cc(F)ccc2n1 (centres unmarked) [EHT 1593, 5-[5-(6-Fluoro-2-methyl-quinolin-4-yloxy)-pentyloxy]-2-(tetrahydro-pyran-2-yloxymethyl)-4H-pyran-4-one] | 2.4 | 13.2 | < 4 | 21.5 | –
O=c1cc(CN2CCOCC2)occ1OCCCCCOc1ccnc2cc(C(F)(F)F)ccc12 [EHT 3411, 5-(5-(7-(Trifluoromethyl)quinolin-4-yloxy)pentyloxy)-2-(morpholinomethyl)-4H-pyran-4-one] | – | 62.4 | 14.1 | – | –
CC(C)(C)NC(=O)N1CCN(Cc2cc(=O)c(OCCCCCSc3ccnc4cc(C(F)(F)F)ccc34)co2)CC1 [EHT 3664, 4-((5-(5-(7-(Trifluoromethyl)quinolin-4-ylthio)pentyloxy)-4-oxo-4H-pyran-2-yl)methyl)-N-tert-butylpiperazine-1-carboxamide] | – | < 10 | – | 9.8 | IC50 (HMEC1): 10 µM; IC50 (MDA-MB-231; [1]): 6.3 µM; IC50 (MDA-MB-231; [3]): < 9 µM
O=c1cc(CN2CCOCC2)occ1OCCCCCOc1ncnc2ccccc12 [EHT 3726, 5-(5-(Quinazolin-4-yloxy)pentyloxy)-2-(morpholinomethyl)-4H-pyran-4-one] | – | – | ~200 | – | –
O=c1cc(COC2CCCCO2)occ1OCCCCCOc1ccnc2cc(C(F)(F)F)ccc12 (centres unmarked) [EHT 3788, 2-(Tetrahydro-pyran-2-yloxymethyl)-5-[5-(7-trifluoromethyl-quinolin-4-yloxy)-pentyloxy]-pyran-4-one] | 2.1 | < 10 | < 4 | 8.8 | IC50 (HMEC1): 7.1 µM
CNC(=O)N1CCN(Cc2cc(=O)c(OCCCCCSc3ccnc4cc(C(F)(F)F)ccc34)co2)CC1 [EHT 4495, 4-((5-(5-(7-(Trifluoromethyl)quinolin-4-ylthio)pentyloxy)-4-oxo-4H-pyran-2-yl)methyl)-N-methylpiperazine-1-carboxamide] | 2.3 | – | < 4 | – | –
O=c1cc(CN2CCOCC2)occ1OCCCCCOc1ccnc2c(C(F)(F)F)cccc12 [EHT 4687, 5-(5-(8-(Trifluoromethyl)quinolin-4-yloxy)pentyloxy)-2-(morpholinomethyl)-4H-pyran-4-one] | – | 39.1 | 5.5 | – | –
O=c1cc(CN2CCSCC2)occ1OCCCCCSc1ccnc2cc(C(F)(F)F)ccc12 [EHT 5430, 5-(5-(7-(Trifluoromethyl)quinolin-4-ylthio)pentyloxy)-2-(thiomorpholino-methyl)-4H-pyran-4-one] | 2.1 | 20.1 | < 4 | – | –
CCCc1ccc2cccnc2c1OCCCCCOc1coc(COC2CCCCO2)cc1=O (centres unmarked) [EHT 5810, 5-[5-(7-Propyl-quinolin-8-yloxy)-pentyloxy]-2-(tetrahydro-pyran-2-yloxymethyl)-4H-pyran-4-one] | – | 15.1 | 8.4 | – | –
CN1CCN(Cc2cc(=O)c(OCCCCCOc3ccnc4c(C(F)(F)F)cccc34)co2)CC1 [EHT 5847, 5-(5-(8-(Trifluoromethyl)quinolin-4-yloxy)pentyloxy)-2-((4-methylpiperazin-1-yl)methyl)-4H-pyran-4-one] | – | 31.6 | 6.1 | – | –
O=c1cc(COC2CCCCO2)occ1OCCCCCOc1cccc2ccsc12 (centres unmarked) [EHT 6060, 5-[5-(Benzo[b]thiophen-7-yloxy)-pentyloxy]-2-(tetrahydro-pyran-2-yloxymethyl)-4H-pyran-4-one] | 2 | 19.1 | < 4 | – | –
CCOC(=O)c1cnc2cc(C(F)(F)F)ccc2c1OCCCCCOc1coc(CN2CCN(C)CC2)cc1=O [EHT 8791, 4-[5-(6-(4-Methyl-piperazin-1-ylmethyl)-4-oxo-4H-pyran-3-yloxy)-pentyloxy]-7-trifluoromethyl-quinoline-3-carboxylic acid ethyl ester] | – | ~200 | ~200 | – | –
O=c1cc(COC2CCCCO2)occ1OCCCCCCCSc1ccnc2cc(C(F)(F)F)ccc12 (centres unmarked) [EHT 8883, 5-(7-(7-(Trifluoromethyl)quinolin-4-ylthio)heptyloxy)-2-((tetrahydro-2H-pyran-2-yloxy)methyl)-4H-pyran-4-one] | – | < 10 | – | – | IC50 (HMEC1): 8 µM
CC(C)(C)OC(=O)N1CCN(Cc2cc(=O)c(OCCCCCSc3ccnc4cc(C(F)(F)F)ccc34)co2)CC1 [EHT 9358, tert-Butyl 4-((5-(5-(7-(trifluoromethyl)quinolin-4-ylthio)pentyloxy)-4-oxo-4H-pyran-2-yl)methyl)piperazine-1-carboxylate] | – | 18.4 | – | 7.7 | IC50 (HCT116; Homo sapiens, HCT-116, 144 h, 0.5% FBS, 6-day treatment): 1 µM
CC(=O)O[C@H]1C(=O)[C@@]2(C)[C@H]([C@H](OC(=O)c3ccccc3)[C@]3(O)C[C@H](OC(=O)[C@H](O)[C@@H](NC(=O)c4ccccc4)c4ccccc4)C(C)=C1C3(C)C)[C@]1(OC(C)=O)CO[C@@H]1C[C@@H]2O [Taxol, Paclitaxel, reference compound] | – | 0.0029 | 0.0055 | ~0.05 | IC50 (MDA-MB-231; Homo sapiens, MDA-MB-231, 72 h, 10% FBS, 3-day treatment, read-out: IC50, MDA-MB-231 (row labelled Taxol (nM))): 4.25e-06 µM; IC50 (MDA-MB-231; [3]): 0.0036 µM
